Experimental data: ChEMBL document CHEMBL3784992, “Identification of novel estrogen receptor (ER) agonists that have additional and complementary anti-cancer activities via ER-independent mechanism” (Bioorg Med Chem Lett, 2016)
Calls of active or inactive are those of the source. The calls are words filed in the database; no cut-off is given here.

Experiments:
Estrogen receptor = target: T1, Estrogen receptor (Homo sapiens, UniProt P03372); assay: Agonist activity at estrogen receptor in human MCF7 cells assessed as ERE-mediated transcriptional activity after 24 hrs by luciferase assay; type: cell-based
T1 sequence (P03372 whole entry): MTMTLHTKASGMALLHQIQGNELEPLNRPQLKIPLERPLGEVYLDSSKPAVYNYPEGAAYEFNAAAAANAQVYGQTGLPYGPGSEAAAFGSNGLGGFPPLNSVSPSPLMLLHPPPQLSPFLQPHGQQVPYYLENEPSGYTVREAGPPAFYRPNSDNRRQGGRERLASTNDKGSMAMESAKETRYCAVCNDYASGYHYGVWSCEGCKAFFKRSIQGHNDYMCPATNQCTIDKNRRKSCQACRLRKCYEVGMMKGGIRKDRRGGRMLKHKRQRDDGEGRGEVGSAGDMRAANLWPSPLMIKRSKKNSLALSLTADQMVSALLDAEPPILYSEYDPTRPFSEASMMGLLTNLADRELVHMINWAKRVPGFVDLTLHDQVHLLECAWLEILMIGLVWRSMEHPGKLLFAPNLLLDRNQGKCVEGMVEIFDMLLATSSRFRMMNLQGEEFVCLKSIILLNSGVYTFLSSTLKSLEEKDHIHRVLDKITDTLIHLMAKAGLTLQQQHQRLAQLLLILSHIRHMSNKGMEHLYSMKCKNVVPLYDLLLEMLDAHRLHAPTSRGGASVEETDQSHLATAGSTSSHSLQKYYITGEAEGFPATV

MCF7 [1] = assay: Antiproliferative activity against ER-positive human MCF7 cells assessed as cell viability after 48 hrs by MTT assay; type: functional, cell-based
[2] = target: T2, Estrogen receptor (Homo sapiens) (UniProt P03372); assay: Agonist activity at estrogen receptor alpha in human MCF7 cells assessed as ER alpha phosphorylation at 10 uM after 24 hrs by immunoblotting analysis; type: cell-based
T2 sequence (whole entry): T1 sequence (P03372 whole entry)

MCF7 [3] = assay: Antiproliferative activity against ER-positive human MCF7 cells assessed as cell viability at 10 uM after 48 hrs by MTT assay; type: functional, cell-based
MCF7 [4] = assay: Induction of apoptosis in ER-positive human MCF7 cells assessed as cell death at 10 uM after 48 hrs by annexin-V staining based flow cytometry; type: functional
MDA-MB-231 = assay: Antiproliferative activity against ER-negative human MDA-MB-231 cells assessed as cell viability after 48 hrs by MTT assay; type: functional, cell-based
MCF7 [5] = assay: Effect on cell cycle in ER-positive human MCF7 cells assessed as accumulation at subG1 phase at 10 uM after 48 hrs by propidium iodide staining based flow cytometry; type: functional
MCF7 [6] = assay: Induction of apoptosis in ER-positive human MCF7 cells assessed as condensed nuclei at 10 uM after 24 hrs by DAPI staining based fluorescence microscopy; type: functional, cell-based
[7] = target: T2, Estrogen receptor (Homo sapiens); assay: Agonist activity at estrogen receptor in human MCF7 cells assessed as GREB1 mRNA level at 10 uM after 24 hrs by RT-qPCR method; type: cell-based
MCF7 [8] = assay: Induction of apoptosis in ER-positive human MCF7 cells assessed as membrane blebbing at 10 uM after 24 hrs by DAPI staining based fluorescence microscopy; type: functional, cell-based

Compound | EC50 (Estrogen receptor) [nM] | Activity (MCF7 [1]) | Activity [2] | Activity (MCF7 [3]) | Activity (MCF7 [4]) | Activity (MDA-MB-231) | Activity (MCF7 [5]) | Activity (MCF7 [6]) | Activity [7] | Activity (MCF7 [8])
CCCCON=C(c1ccc(O)cc1)c1ccc(O)cc1 | 75 | Dose-dependent effect | Active | Active | Active | Dose-dependent effect | Active | Active | Active | Active
C=CCCCON=C(c1ccc(O)cc1)c1ccc(O)cc1 | 46 | Dose-dependent effect | Active | Active | Active | Dose-dependent effect | Active | Active | Active | Active
CC(C)CCON=C(c1ccc(O)cc1)c1ccc(O)cc1 | 77 | Dose-dependent effect | Active | Active | Active | Dose-dependent effect | Active | Active | Active | Active
